In ChEMBL document CHEMBL4715716, “Discovery of novel non-steroidal reverse indole mineralocorticoid receptor antagonists” (Bioorg Med Chem Lett, 2016):

Experiments:
Assay type in all cases: ADME, organism-based
[1] = Volume of distribution at steady state in rat at 1 mg/kg, iv or 2 mg/kg, po by LC/MS/MS analysis; settings: in vivo, read-out: Vdss
[2] = Half life in rat at 1 mg.kg, iv or 2 mg/kg, po by LC/MS/MS analysis; settings: in vivo
[3] = Dose normalized AUC in rat at 2 mg/kg, po by LC/MS/MS analysis; settings: in vivo
[4] = Oral bioavailability in rat at 2 mg/kg by LC/MS/MS analysis; settings: in vivo
[5] = Clearance in rat at 1 mg/kg, iv or 2 mg/kg, po by LC/MS/MS analysis; settings: in vivo

## CC[C@](CO)(c1ccc(Cl)cc1)n1ccc2c(NS(C)(=O)=O)cccc21
[1]
  Vd: 4.1 L/kg
[2]
  half-life: 1.5 h
[3]
  AUC/dose: 0.67 µM·kg·h/mg
[4]
  bioavailability: 65%
[5]
  clearance: 41 mL/min/kg

## CC[C@](C(=O)NC)(c1ccc(Cl)cc1)n1ccc2c(NS(C)(=O)=O)cccc21
[1]
  Vd: 2.8 L/kg
[2]
  half-life: 0.6 h
[3]
  AUC/dose: 0.13 µM·kg·h/mg
[4]
  bioavailability: 21%
[5]
  clearance: 67 mL/min/kg
